This is an account of results in PubChem BioAssay (NCI).

Broadly, the TGI is the concentration giving total growth inhibition. In general, GI50 refers to the concentration that inhibits growth by half.

Common to all, as to assay: DTP human tumour cell line panel, 48 h
For experiment [1], the system named is RXF 393 renal.
Experiment [2] relates to IGROV1 ovarian.
In experiment [3] the test system is 786-0 renal.
Experiment [4] concerns SF-268 CNS.
Experiment [5] relates to SR leukemia.
The test system of experiment [6] is U251 CNS.
The test system of experiment [7] is SK-OV-3 ovarian.
In experiment [8] the test system is NCI-H226 lung.
Experiment [9] deals with RPMI-8226 leukemia.
Experiment [10] concerns TK-10 renal.

The structures appear in SMILES notation.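 A five-concentration, 48-hour dose response in 96-well plates underlies each endpoint, interpolated linearly between surrounding concentrations. GI50 is the concentration that inhibits growth by half. TGI is the concentration that stops growth completely.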 Some results are limits rather than exact numbers.

Consider `O=C(Nc1ccc2[nH]c(C(=O)N3CC(CCl)c4c3cc([N+](=O)[O-])c3ccccc43)cc2c1)c1cc2ccccc2o1` (stereo unspecified), for which the TGI in experiment [1], in experiment [2], in experiment [3], in [4], in [5] and in [6] was over 1100 µM each time. Also, the TGI in experiment [7], in experiment [8] and in [9] was over 1100 µM each time. The GI50 in experiment [2] is over 1100 µM; in experiment [3] it was over 1100 µM; in experiment [4], over 1100 µM; in experiment [5], 35200 nM; in [6], over 1100 µM; in experiment [7], over 1100 µM. The GI50 in experiment [8] and in [9] was over 1100 µM each time.
As for `CCN(CC)CCCC(C)Nc1c2ccc(Cl)cc2nc2cc(OC)c(OC)cc12` (stereo unspecified), the GI50 in experiment [1] was 1300 nM; in [2], 2.15 µM; in [3], 1.46 µM; in [4] it was 1.93 µM; in [5], 1270 nM; in [10] it was 1990 nM. Further, the GI50 in [7] is 2.65 µM; in experiment [8] it was 1.47 µM; in [9], 2.47 µM. For the same compound, the TGI was 2.67 µM in [1]; 9.96 µM in [2]; 5.57 µM in experiment [3]; 7.03 µM in [4]; 13.6 µM in experiment [5]; 5.04 µM in experiment [10]. Moreover, the TGI in [7] amounted to 8.87 µM; in experiment [8], 5.39 µM; in experiment [9], 6.66 µM.
Regarding `O=C(/C=C/c1cccc([N+](=O)[O-])c1)c1ccc(O)c(CN2CCN(c3cc4c(cc3F)c(=O)c(C(=O)O)cn4C3CC3)CC2)c1`, the GI50 in experiment [1] was 1510 nM; in [3], 1.57 µM; in experiment [4] it was 2.15 µM; in [5], 398 nM; in [10], 2100 nM; in experiment [6], 1.17 µM. For the same compound, the GI50 was 5 µM in [7], 3.49 µM in experiment [8] and 0.418 µM in [9]. Besides, the TGI in experiment [1] came out at 2.99 µM; in [3] it was 3 µM; in experiment [4], 5.58 µM; in [5], 53.2 µM; in experiment [10] it was 5.59 µM; in experiment [6] it was 2.62 µM. For the same compound, the figures for the TGI in experiment [7], in experiment [8] and in experiment [9] were over 100 µM, 15.2 µM and 2.82 µM, respectively.
`CC1(C)CCC[C@]2(C)c3cc(O)ccc3CC[C@@H]12`: the GI50 is 16100 nM in experiment [1]; 20.4 µM in experiment [2]; 27.3 µM in experiment [3]; 16.4 µM in experiment [4]; 8720 nM in experiment [5]; 18200 nM in experiment [10]. The GI50 in [6] is 14.6 µM; in experiment [8] it was 18.2 µM; in experiment [9], 12.3 µM. The concentration for total growth inhibition (TGI) in experiment [1] is 35.1 µM; in experiment [2], 38.8 µM; in experiment [3], 79.7 µM; in [4], 33.4 µM; in experiment [5], over 100 µM; in [10], 33.7 µM. Further, the TGI was determined as 29.1 µM in experiment [6], 35.4 µM in experiment [8] and 30.4 µM in experiment [9].
As for `CCCCOC(=O)c1ccc(NC(=O)CCl)cc1`, the GI50 was 1550 nM in experiment [1]; 1.6 µM in experiment [2]; 2.04 µM in experiment [3]; 1.78 µM in experiment [4]; 1670 nM in [5]; 1910 nM in experiment [10]. The GI50 is 1.71 µM in experiment [6], 10.5 µM in experiment [7] and 4.82 µM in experiment [8]. In addition, the TGI in experiment [1] is 3.19 µM; in experiment [2], 4.34 µM; in experiment [3] it was 3.74 µM; in experiment [4], 4.05 µM; in [5], 3.85 µM; in experiment [10], 3.85 µM. The values for the TGI in experiment [6], in [7] and in [8] were 3.1 µM, 22.6 µM and 23.1 µM, respectively.
Turning to `Clc1ccc(C(c2ccc(Cl)cc2)N2CCNCC2)cc1`, the TGI worked out at 9.75 µM in [1]; 3.17 µM in [2]; 3.17 µM in experiment [3]; 19.7 µM in experiment [4]; 4.41 µM in experiment [5]; 3.74 µM in experiment [10]. The concentration for total growth inhibition (TGI) is 4.2 µM in [6], over 44.3 µM in experiment [7] and 4.66 µM in [9].
As to `Nc1nc(NC2C=C(CO)C(O)C2O)c([N+](=O)[O-])c(=O)[nH]1` (stereo unspecified), the TGI in experiment [1], in [2], in experiment [3], in experiment [4], in [5] and in [10] was over 100 µM each time. The TGI in [6], in experiment [7] and in experiment [8] was over 100 µM in each case.
In the case of `COc1ccc(C2=Nc3c/c(=C\c4c(O)[nH]c5ccc(Cl)cc45)ccc3=N2)cc1`, the GI50 is 1580 nM in [1]; 2.16 µM in [2]; 1.94 µM in [3]; 2.09 µM in [4]; 693 nM in [5]; 2450 nM in experiment [10]. Besides, the results for the GI50 in experiment [7] and in experiment [8] were 2.23 µM and 13.8 µM, respectively. Also, the TGI amounted to 3.15 µM in experiment [1]; 5.28 µM in experiment [2]; 3.81 µM in [3]; 5.47 µM in experiment [4]; 3.4 µM in [5]; 4.42 µM in experiment [10]. The TGI in [7] came out at 5.23 µM; in [8], 37 µM.
For the compound `Nc1nc2ccc3[nH]ncc3c2c2c1CCCC2`, the GI50 was 399 nM in experiment [1]; 2.29 µM in experiment [2]; 2.15 µM in experiment [3]; 1.88 µM in [4]; 467 nM in experiment [5]; 2000 nM in experiment [10]. In addition, the GI50 in experiment [6] was 2.7 µM; in [7] it was 2.94 µM; in experiment [8] it was 1.48 µM. For the same compound, the TGI was found to be 1.77 µM in experiment [1]; 11.2 µM in experiment [2]; 9.85 µM in experiment [3]; 6.18 µM in experiment [4]; 14.5 µM in [10]; 13.4 µM in experiment [6]. Also, the TGI came out at 14.7 µM in experiment [7] and 4.59 µM in experiment [8].
Regarding `NC(CC(=O)Nc1ccc(Cl)cc1)=Nc1ccccc1`, the TGI in experiment [1], in experiment [2], in experiment [3], in [4], in experiment [5] and in experiment [10] was over 100 µM in each case. Also, the TGI in experiment [6], in [7] and in experiment [8] was over 100 µM in each case.
Consider `O=C(O)c1ccc([S-])cc1.[Au+].c1ccc(CN2[CH-]N(Cc3ccccc3)C(c3ccccc3)=C2c2ccccc2)cc1`, for which the GI50 in [1] is 305 nM; in experiment [2] it was 0.541 µM; in experiment [3] it was 0.376 µM; in experiment [5], 429 nM; in experiment [10], 613 nM; in [6] it was 0.321 µM. The values for the GI50 in experiment [7] and in experiment [9] were 0.352 µM and 0.323 µM, respectively. Moreover, the TGI in [1] is 1.13 µM; in experiment [2], 2.15 µM; in [3], 1.59 µM; in experiment [5] it was 2.76 µM; in [10] it was 1.98 µM; in experiment [6], 1.36 µM. Further, the figures for the concentration for total growth inhibition (TGI) in experiment [7] and in [9] were 1.39 µM and 2 µM, respectively.
With `CCCCCCCC(=O)OCC1OC(n2cc(F)c(=O)[nH]c2=O)C(NC(=O)OCc2ccccc2)C(O)C1O` (stereo unspecified), the TGI in [1], in experiment [2], in [3], in [4], in experiment [5] and in [10] was over 100 µM each time. Further, the figures for the TGI in [6], in experiment [7] and in experiment [9] were over 100 µM, over 100 µM and 91.7 µM, respectively.
`Cc1cc(Oc2cnc(=O)[nH]c2)cs1`: the TGI in [2], in experiment [3], in experiment [4], in experiment [5], in [10] and in experiment [6] was over 100 µM throughout. The TGI in experiment [7], in [8] and in experiment [9] was over 100 µM throughout.
As for `CCCCCCCCC(O)C#CC(N)=O` (stereo unspecified), the TGI in experiment [1] was determined as 29.2 µM; in [3] it was 25.3 µM; in experiment [5], 52.9 µM; in experiment [10], 30.8 µM; in [6] it was 20.9 µM; in [8] it was 25.6 µM. The compound further came in with a TGI in experiment [9] of 41.1 µM.
For `CC1(C)N=C(N)N=C(N)N1c1ccc(CCc2ccc(Cl)cc2S(=O)(=O)F)c(Cl)c1`, the GI50 is 23000 nM in experiment [1]; 0.942 µM in [2]; 5.21 µM in experiment [3]; 4.21 µM in experiment [4]; 6050 nM in [5]; 4.42 µM in [6]. The GI50 was 19.1 µM in experiment [7], 17.9 µM in experiment [8] and 10.2 µM in [9]. The TGI in experiment [1] is over 100 µM; in experiment [2] it was over 100 µM; in [3], over 100 µM; in experiment [4], 53.5 µM; in experiment [5] it was 76.5 µM; in experiment [6], 20.6 µM. Moreover, the total growth inhibition concentration (TGI) is over 100 µM in experiment [7], 44.3 µM in experiment [8] and 38.5 µM in experiment [9].
As for `CN1CCN(C(=O)c2c(NC(=O)NS(=O)(=O)c3ccccc3)sc3c2CCCCC3)CC1`, the GI50 is 34000 nM in experiment [1]; over 100 µM in [2]; 19.2 µM in [3]; 41.2 µM in experiment [4]; 27500 nM in [5]; 33.1 µM in [8]. In addition, the GI50 in experiment [9] is 21.8 µM. Also, the TGI was over 100 µM in experiment [1]; over 100 µM in experiment [2]; 53 µM in experiment [3]; over 100 µM in experiment [4]; over 100 µM in [5]; over 100 µM in [8]. Further, in experiment [9], the TGI stood at 64.8 µM.
Turning to `COc1c2c(c(CC=C(C)C)c3oc(=O)c(-c4ccc(O)cc4)c(O)c13)OC(C)(C)C=C2`, the TGI is 12.4 µM in experiment [1]; 44.9 µM in [2]; 71.3 µM in [3]; 41 µM in experiment [4]; 79.9 µM in [5]; over 100 µM in experiment [10]. For the same compound, the results for the TGI in experiment [6], in experiment [8] and in [9] were 27.8 µM, 62 µM and 75.3 µM, respectively.
For `O=c1nc(NC(c2ccccc2)(c2ccccc2)c2ccccc2)ccn1CCO`, the TGI in experiment [1], in experiment [2], in experiment [3], in experiment [4], in [5] and in experiment [10] was over 100 µM in each case. The TGI in experiment [6], in [8] and in experiment [9] was over 100 µM throughout.
For the compound `N#Cc1ccc(C2C3=C(CCCC3=O)OC3=C2C(=O)c2ccccc2C3=O)cc1` (stereo unspecified), the GI50 was 1860 nM in experiment [1]; 1.45 µM in experiment [2]; 1.87 µM in [3]; 1.97 µM in [4]; 3470 nM in experiment [5]; 1.7 µM in [6]. The GI50 in experiment [7] is 3.17 µM; in experiment [8], 2.02 µM; in [9], 2.3 µM. The TGI is 3.59 µM in experiment [1]; 3.46 µM in experiment [2]; 3.76 µM in [3]; 5.04 µM in [4]; over 100 µM in experiment [5]; 3.16 µM in [6]. For the same compound, the TGI in [7] came to 9.6 µM; in [8], 4.62 µM; in experiment [9] it was 7.12 µM.
On to `COC(=O)c1ccc(NC(=O)c2cc(OC)c(OC)c(OC)c2)cc1`, for which the TGI in experiment [1] is 77.2 µM; in experiment [2] it was over 100 µM; in [3], over 100 µM; in experiment [4], over 100 µM; in experiment [5], over 72.8 µM; in experiment [10] it was over 100 µM. Also, the TGI was 98.4 µM in [7] and over 85.4 µM in experiment [8].
